# Reference: US7524517B2, “Methods and compositions for P2X receptor calcium entry channels and other calcium entry mechanisms” (UAB Research Foundation, priority 2003, dated 2009)
# Entries after “also recorded” stand apart in the source; their conditions may differ.
# Legend:
# [1] = system: P2X receptor Ca^2+ entry channels; assay: Fura-2/AM fluorescence imaging of cytosolic Ca2+ in IB3-1 CF airway epithelial cells; type: cell-based, human
# [2] = system: non-mucoid and mucoid Pseudomonas aeruginosa; assay: Bacterial growth in liquid LB medium and on LB-agar plates; type: cell-based
# INS-1 cells = assay: ELISA of insulin secretion from INS-1 cells; type: cell-based, rat; conditions: 15 seconds to 120 minutes after stimulation
# ENaC [3] = biological target: T1, ENaC (Mus musculus, UniProt Q61180+Q9WU38+Q9WU39); assay: In vivo nasal potential difference, ENaC-mediated Na+ absorption
# T1 construct: from tissue; host or cells: nasal mucosa of living control, Cincinnati bitransgenic CF and delF508 CF mice
# T1 sequence (Q61180 1-699): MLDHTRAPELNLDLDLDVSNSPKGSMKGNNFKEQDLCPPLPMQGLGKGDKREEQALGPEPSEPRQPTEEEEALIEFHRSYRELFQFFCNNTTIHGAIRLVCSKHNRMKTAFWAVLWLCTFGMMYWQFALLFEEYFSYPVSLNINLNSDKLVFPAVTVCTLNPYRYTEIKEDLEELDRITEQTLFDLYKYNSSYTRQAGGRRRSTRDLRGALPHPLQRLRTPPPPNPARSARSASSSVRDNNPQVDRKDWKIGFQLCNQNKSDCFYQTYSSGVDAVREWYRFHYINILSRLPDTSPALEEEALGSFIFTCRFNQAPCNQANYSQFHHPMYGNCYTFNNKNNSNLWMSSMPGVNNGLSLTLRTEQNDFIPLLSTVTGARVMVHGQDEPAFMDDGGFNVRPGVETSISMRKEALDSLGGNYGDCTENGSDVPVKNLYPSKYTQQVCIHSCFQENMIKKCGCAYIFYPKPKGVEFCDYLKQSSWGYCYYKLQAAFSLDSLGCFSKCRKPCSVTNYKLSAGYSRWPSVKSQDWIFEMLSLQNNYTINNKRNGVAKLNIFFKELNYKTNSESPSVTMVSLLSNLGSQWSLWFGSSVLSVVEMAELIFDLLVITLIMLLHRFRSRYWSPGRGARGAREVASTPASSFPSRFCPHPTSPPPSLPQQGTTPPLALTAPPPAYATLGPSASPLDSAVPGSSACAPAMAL
# T1 sequence (Q9WU38 1-638): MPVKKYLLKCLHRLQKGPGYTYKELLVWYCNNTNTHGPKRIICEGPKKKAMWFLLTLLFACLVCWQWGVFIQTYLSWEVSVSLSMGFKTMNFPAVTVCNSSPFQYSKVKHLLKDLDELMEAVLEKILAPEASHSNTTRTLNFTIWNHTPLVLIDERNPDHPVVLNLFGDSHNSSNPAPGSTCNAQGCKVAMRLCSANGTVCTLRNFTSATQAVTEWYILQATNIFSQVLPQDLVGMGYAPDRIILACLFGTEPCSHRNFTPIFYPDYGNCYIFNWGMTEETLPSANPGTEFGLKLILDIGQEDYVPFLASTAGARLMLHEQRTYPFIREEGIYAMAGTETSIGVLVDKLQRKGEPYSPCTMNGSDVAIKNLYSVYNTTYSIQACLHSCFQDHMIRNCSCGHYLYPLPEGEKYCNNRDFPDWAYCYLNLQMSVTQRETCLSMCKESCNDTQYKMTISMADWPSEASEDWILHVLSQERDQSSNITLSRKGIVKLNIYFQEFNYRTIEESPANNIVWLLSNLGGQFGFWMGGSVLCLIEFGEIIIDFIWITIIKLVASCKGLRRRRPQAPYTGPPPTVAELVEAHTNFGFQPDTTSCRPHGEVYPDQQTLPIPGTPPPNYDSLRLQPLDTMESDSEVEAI
# T1 sequence (Q9WU39 1-655): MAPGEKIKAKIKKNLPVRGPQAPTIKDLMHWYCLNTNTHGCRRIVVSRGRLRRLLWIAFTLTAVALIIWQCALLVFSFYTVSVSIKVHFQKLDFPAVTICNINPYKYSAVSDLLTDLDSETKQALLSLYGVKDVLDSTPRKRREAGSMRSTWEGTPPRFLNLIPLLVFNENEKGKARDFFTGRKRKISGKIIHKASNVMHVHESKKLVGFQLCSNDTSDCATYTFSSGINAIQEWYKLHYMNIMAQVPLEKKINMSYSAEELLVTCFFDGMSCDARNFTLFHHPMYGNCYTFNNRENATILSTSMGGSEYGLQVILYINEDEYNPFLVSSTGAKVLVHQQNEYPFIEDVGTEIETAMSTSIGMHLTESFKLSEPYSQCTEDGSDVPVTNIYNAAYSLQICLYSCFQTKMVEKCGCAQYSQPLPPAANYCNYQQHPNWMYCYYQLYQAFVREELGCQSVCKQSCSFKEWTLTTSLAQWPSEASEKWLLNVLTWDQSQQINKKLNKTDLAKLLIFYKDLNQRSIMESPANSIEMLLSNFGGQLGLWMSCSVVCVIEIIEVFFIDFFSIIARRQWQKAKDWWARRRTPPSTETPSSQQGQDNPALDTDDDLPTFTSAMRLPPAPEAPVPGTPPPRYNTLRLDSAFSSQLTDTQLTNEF
# ENaC [4] = biological target: T1, ENaC; assay: Ussing chamber / voltohmmeter recordings of ENaC-mediated Na+ absorption in airway and PKD collecting duct monolayers; type: cell-based; conditions: for concentrations required for inhibition in ISC recordings / doses inhibitory in PD assays: ARPKD sodium hyperabsorption; for doses inhibitory in PD assays: VTE/PD
# calcium entry channels = assay: Fura-2 fluorescence ratio, sustained calcium entry signals in mammalian cells (FIG. 19C); type: cell-based
# IB3-1 CF cells = assay: SPQ halide fluorescence assay of Cl- efflux; type: cell-based, human; conditions: Na+- and Mg2+-free vehicle, 3 mM Ca2+, pH 7.9
# Protocol: Modifications to this method involved the use of NaCl at the beginning and end of protocols. Agonists were tested in NMDGNO3-containing solution (as above for Ca^2+ assays).
# In our modified saline vehicle that was devoid of Na+ and Mg^2+ and enriched in Ca^2+ (3 mM) along with modifications in the halides (Cl− substituted with iodide to quench the SPQ dye and nitrate to unquench), ATP plus zinc or zinc alone was added to IB3-1 CF cells and halide efflux was rescued in these cells. The effects were dependent upon an alkaline extracellular pH (pH 7.9) and the presence of extracellular Ca^2+. In essence, the rescue of Cl− transport (measured with a different halide in this case) was dependent upon the same chemical conditions as the zinc-induced Ca^2+ entry.
# [5] = system: INS-1 rat pancreatic β cells; assay: Fura-2 fluorescence assay of cell calcium in INS-1 cells; type: cell-based; conditions: Na+- and Mg2+-free Ringer, zinc alone 1-50 micromolar
# Protocol: Cytosolic Ca^2+ concentration was measured with dual excitation wavelength fluorescence microscopy (Deltascan, Photon Technologies, Princeton, N.J.) after cells were loaded with the permeant form of the fluorescence dye, Fura-2-acetoxymethyl ester (Fura-2-AM; Teflabs, Austin, Tex., USA). Fura-2 fluorescence was measured at an emission wavelength of 510 nm in response to excitation wavelength of 340 nm and 380 nm, alternated at a rate of 50 Hz by a computer-controlled chopper assembly. Ratios (340 nm/380 nm) were calculated at a […] using PTI software. Cells were incubated in Dulbecco's phosphate buffered saline containing 2 mM CaCl2 and 1 mM MgCl2 in the presence of 5 μM Fura2-AM and 1 mg/ml Pluronic F-127 dissolved in DMSO for 120 min to allow loading of the dye into the cells. After loading, coverslips were rinsed at least for 10 min in Dulbecco's phosphate buffered saline to remove extracellular Fura 2-AM and the surfactant, and were positioned in the cuvette at a 45° angle from the excitation light. […] Fluorescence intensities at both wavelengths were assessed and only those preparations in which there were >200,000 counts/s for both wavelengths were used for experiments. At the beginning of each experiment, cells were perfused with solution A (see below) and the fluorescence ratio was monitored for at least 100 sec to establish a stable baseline value. […]
# [6] = system: Cl− transport across the nasal mucosa; assay: In vivo nasal potential difference, rescue of Cl- secretion; design: species or system mouse; conditions: CF mice
molecule,measurement,setting,value
[Cu] [copper],effect on zinc effects (Ca2+ entry),[1],competitively inhibit
[Zn+2] [zinc],IC50,"[2]; read-out: IC50, bacterial growth inhibition",1000 to 5000 µM
same,insulin secretion versus glucose stimulus,INS-1 cells,even more potent stimulus than glucose
same,depolarization of NPD,ENaC [3]; Cincinnati bitransgenic CF mouse,~10 mV
same,depolarization of NPD,"ENaC [3]; control mouse, NaCl-replete lactated Ringer",3-4 mV
same,depolarization of NPD,ENaC [3]; deIF508 CF mouse,6-7 mV
same,concentrations required for inhibition in ISC recordings,ENaC [4],Millimolar
same,doses inhibitory in PD assays,ENaC [4],mid-micromolar
same,concentration range inhibiting ENaC,ENaC [4]; Ussing chamber recordings,50 to 100 µM
same,"Fura-2 fluorescence ratio, sustained calcium entry","calcium entry channels; Na+ free conditions, pH 7.9",2.1
same,halide efflux / Cl- permeability in CF cells,IB3-1 CF cells,rescued
same,effect on cell calcium / Ca2+ entry,[5],further sustained increase in Ca^2+ entry; also recorded: small transient increase above the sustained plateau
same,zinc-induced increases in Ca2+,[1]; Ca2+-free medium,small and transient
"[Ni] [nickel, reference compound]",concentrations required for inhibition in ISC recordings,ENaC [4],Millimolar
same,doses inhibitory in PD assays,ENaC [4],mid-micromolar
"O=S(=O)([O-])[O-].O=S(=O)([O-])[O-].O=S(=O)([O-])[O-].[Fe+3].[Fe+3] [Ferric iron, ferric sulfate]","growth, iron competition experiment",[2],enhanced growth significantly
ferrous sulfate,"growth, iron competition experiment",[2],inhibit
CC(C)NCC(O)c1ccc(O)c(O)c1 (centres unmarked) [isoproterenol],effect on nasal PD,[6],without effect
C[C@H](CCC(=O)O)C[C@H](C)C[C@H](C)C(=O)/C=C(\O)[C@H](C)C[C@H](C)C/C=C/[C@@H](C)[C@@H](O)[C@@H](C)[C@@H](O)C[C@@H]1CC[C@@](C)([C@H]2CC[C@@](C)([C@@H](C)O)O2)O1 [ionomycin],"Fura-2 fluorescence ratio, sustained",calcium entry channels; ionomycin 2 μM,3.4
"[Cl-].[Cl-].[Zn+2] [ZnCl2, zinc chloride]",halide efflux / Cl- permeability in CF cells,IB3-1 CF cells,restored Cl− permeability
ivermectin,effect on zinc and/or ATP induced manganese or calcium entry,"[1]; included with ATP and/or zinc, Fura-2 quenching and direct Fura-2 assays",potentiated
C/C=C(/C)C(=O)O[C@H]1C(C)=C2[C@H]([C@@H]1OC(=O)CCCCCCC)[C@@](C)(OC(C)=O)C[C@H](OC(=O)CCC)[C@@]1(O)[C@H]2OC(=O)[C@@]1(C)O [thapsigargin],"Fura-2 fluorescence ratio, transient peak (store-operated calcium channels)","calcium entry channels; thapsigargin 100 nM, ER store depletion and re-addition of extracellular calcium",3.0
same,effect on zinc-induced Ca2+ transients,"[1]; thapsigargin pretreatment, Ca2+-free medium",abolished
